Measured values from patent publication US20260103474A1, “NOVEL COMPOUNDS FOR THE DIAGNOSIS OF TDP-43 PROTEINOPATHIES” (AC IMMUNE SA, priority 2022, published 2026).

Assays:
TDP-43 aggregates = TDP-43 aggregates (Homo sapiens, UniProt Q13148); experiment: Micro-autoradiography staining in brain sections from patients with FTD; format: binding; set-up: from tissue; host or cells: frozen post-mortem human brain sections (FTLD-TDP type A and type B; non-demented controls in the classical autoradiography); conditions: 120 nM
Chain of TDP-43 aggregates (Q13148 whole entry): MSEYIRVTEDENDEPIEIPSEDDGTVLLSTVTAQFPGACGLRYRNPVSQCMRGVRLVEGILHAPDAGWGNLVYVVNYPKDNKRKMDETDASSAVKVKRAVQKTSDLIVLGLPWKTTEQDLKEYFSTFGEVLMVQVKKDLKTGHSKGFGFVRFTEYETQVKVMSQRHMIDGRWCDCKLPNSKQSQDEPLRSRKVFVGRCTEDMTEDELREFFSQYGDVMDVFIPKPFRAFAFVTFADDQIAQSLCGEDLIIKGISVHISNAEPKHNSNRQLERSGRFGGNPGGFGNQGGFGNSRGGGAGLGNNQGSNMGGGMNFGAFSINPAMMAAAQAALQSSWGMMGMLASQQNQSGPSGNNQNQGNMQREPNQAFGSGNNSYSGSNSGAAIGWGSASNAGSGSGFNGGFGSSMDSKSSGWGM
Protocol: All tissues were collected from donors for or from whom a written informed consent for a brain autopsy and the use of the material and clinical information for research purposes had been obtained by the respective brain banks. All samples were anonymized and coded. Frozen brain tissue blocks with confirmed TDP-43 pathology upon autopsy were processed using a cryotome to generate sections of 10 μm in thickness and mounted on glass slides. Sections were kept at −80° C. until use.
Brain sections were immunostained using a commercially available antibody, specific for phosphorylated serine at amino acid 409/410 (anti-pTDP-43 pS409/410, Biolegend, 829901). Sections were fixed for 15 minutes at 4° C. with 4% formaldehyde (Sigma, 252549) and washed three times for height minutes with 1×PBS (Dulbecco's phosphate buffered saline, Sigma D1408) at room temperature. Next, sections were saturated and permeabilized in blocking buffer (PBS, 10% normal goat serum (NGS), 0.25% Triton X-100) for one hour at room temperature and incubated overnight at 4° C. with primary antibody against pTDP-43 (diluted at 1/500 in PBS, 5% NGS, 0.25% Triton X-100). The following day, sections were washed three times for height minutes with 1×PBS before incubation with a secondary, AlexaFluor633-labeled goat-anti-rat antibody (Invitrogen, A-21094, diluted at 1/500 in PBS) for 45 minutes at room temperature. Following incubation with […] antibodies the sections were washed three times in PBS before being processed further.
For micro-autoradiography, tritiated test compound ([^3H]-Compound 1, [^3H]-Compound 9 or [^3H]-Compound 17 respectively) was incubated on the sections at 120 nM in 50 mM Tris buffer pH 7.4 for 45 minutes at room temperature. Sections were then washed as follows: once in ice-cold 50 mM Tris-HCl pH 7.4 buffer for one minute, twice in ice-cold 70% ethanol for one minute, once in ice-cold 50 mM Tris-HCl pH 7.4 buffer for one minute and finally rinsed briefly in ice-cold distilled water. Sections were subsequently dried for one hour under a stream of air and then exposed to Ilford Nuclear Emulsion Type K5 (Agar Scientific, AGP9281) for ten days at 4° C. in a light-proof slide storage box. The sections were developed by immersing them successively in the following solutions: 1.) Ilford Phenisol Developer (1:5 dilution in H2O, Agar Scientific, AGP9106) for four minutes, 2.) Ilfostop solution (1:20 dilution in H2O, Agar Scientific, AGP9104) for two minutes, 3.) Ilford Hypam Fixer (1:5 dilution in H2O, Agar Scientific, AGP9183) for four minutes and finally rinsed with H2O for 10 minutes.
For image acquisition, sections were mounted using ProLong Gold Antifade reagent (Invitrogen P36930) and imaged on a Panoramic250 Slide Scanner (3DHistech) with a 40× objective capturing brightfield and fluorescent images separately or on a Panoramic Scan II (3DHistech) with a 20× objective. The Visiopharm image analysis software suite was used to align the fluorescent image with the brightfield image.

[1] = tested on: AD brain-derived Tau PHF aggregates; experiment: Micro-radiobinding direct binding on AD brain-derived Tau PHF; set-up: species or system human; conditions: tritiated compound 0.6 to 200 nM
Protocol: The enrichment procedure was modified from Jicha et al, 1997 and Rostagno and Ghiso, 2009. Briefly, around 15 g of the AD human brain were thawed on ice and homogenized with homogenization buffer (3 ml per gram of tissue) (0.75 M NaCl in RAB buffer (100 mM 2-(N-morpholino)ethanesulfonic acid (MES), 1 mM EGTA, 0.5 mM MgSO4, 2 mM DTT, pH 6.8) supplemented with protease inhibitors (Complete; Roche 693124001)) in a glass Dounce homogenizer. […]
PD brain-derived a-synuclein aggregates and AD brain-derived Tau PHF aggregates were spotted onto microarray slides. […] Quantification of signal was performed by using the image analysis software Beamage (ai4R). Non-specific signal was determined with an excess of non-radiolabelled compound (2 μM) and specific binding was calculated by subtracting the non-specific signal from the total signal. Competition was calculated as percentage, where 0% was defined as the specific binding in the presence of vehicle and 100% as the values obtained in the presence of excess of the non-radiolabelled a-syn reference compound. Ki values were calculated in GraphPad Prism7 by applying a nonlinear regression curve fit using a one site, specific binding model. […]

Row | Compound | Micro-autoradiography silver grain signal versus pTDP-43 immunostaining (TDP-43 aggregates; FTLD-TDP type A brain sections) | Micro-autoradiography silver grain signal versus pTDP-43 immunostaining (TDP-43 aggregates; FTLD-TDP type B brain sections) | Direct binding in AD brain-derived Tau PHF aggregates [1]
1 | [3H]C([3H])(O)C1CCN(c2ccc(-c3nc4c(s3)C(=O)N(c3cccnc3)CC4)c(F)n2)CC1 [[^3H]-Compound 17, 2-(2-fluoro-6-(4-(hydroxymethyl-t2)piperidin-1-yl)pyridin-3-yl)-5-(pyridin-3-yl)-6,7-dihydrothiazolo[5,4-c]pyridin-4(5H)-one] | colocalization with pTDP-43 aggregates | same colocalization was observed | No significant binding
2 | [3H]c1cncc(N2CCc3nc(-c4cc([3H])c(N5CC[C@@H](F)C5)nc4F)sc3C2=O)c1 [[^3H]-Compound 1, tritiated 2-[2-fluoro-6-[(3R)-3-fluoropyrrolidin-1-yl]-3-pyridyl]-5-(3-pyridyl)-6,7-dihydrothiazolo[5,4-c]pyridin-4-one] | colocalization with pTDP-43 aggregates | same colocalization was observed | No significant binding
